We go through 22 compounds from patent publication US9586931B2 (Merck Sharp & Dohme Corp., priority 2012, dated 2017).

Broadly, the IC50 is the concentration that inhibits the measured activity by half.

This test concerns the target T1, recombinant human GST-Syk (Homo sapiens, UniProt P43405).
T1 construct: purchased Carna Biosciences 08-176
Briefly: Homogeneous Time-Resolved Fluorescence (HTRF) assay for the recombinant human Syk enzyme. The test is classed as biochemical. The following applies: recombinant human GST-Syk 5 pM, ATP 25 μM, 10-dose titration 10 μM to 0.508 nM; read-out: rhSYK Activity IC50. The procedure, abridged:
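GST-hSyk fusion protein phosphorylated a peptide for 45 min at room temperature. The reaction was quenched with 2 nM Eu-anti-phosphotyrosine antibody and 70 nM SA-APC in 15 mM Tris pH 7.5, 40 mM EDTA, 0.01% Tween 20. The HTRF signal was read after 30 min.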
In general terms: TR-FRET usually uses a lanthanide donor and a delayed reading to cut background.
For `Cc1cc(Nc2nccc(C)n2)cc(-c2cn(C3CCCCC3O)nn2)c1` (single isomer, unassigned) [Example 7.21, 2-(4-{3-methyl-5-[(4-methylpyrimidin-2-yl)amino]phenyl}-1H-1,2,3-triazol-1-yl)cyclohexanol], the IC50 came to 69.5 nM. Consider `Cc1cc(Nc2nccc(C(F)(F)F)n2)cc(-c2cn(CC(=O)O)nn2)c1` [Example 5.58, [4-(3-methyl-5-{[4-(trifluoromethyl)pyrimidin-2-yl]amino}phenyl)-1H-1,2,3-triazol-1-yl]acetic acid], for which the half-maximal inhibitory concentration (IC50) amounted to 61.3 nM. As for `Cc1cc(Nc2cc(C(F)(F)F)ccn2)nc(-c2cn(C(C)c3ccc(C(N)=O)cc3)nn2)c1` (stereo not shown) [Example 1.16, 4-{1-[4-(4-methyl-6-{[4-(trifluoromethyl)pyridin-2-yl]amino}pyridin-2-yl)-1H-1,2,3-triazol-1-yl]ethyl}benzamide], the concentration for half-maximal inhibition (IC50) is 13.3 nM. Next, `Cc1ccnc(Nc2cc(C)cc(-c3cn(CC(O)C(F)(F)F)nn3)n2)c1` (racemic) [Example 5.17, 1,1,1-trifluoro-3-(4-{4-methyl-6-[(4-methylpyridin-2-yl)amino]pyridin-2-yl}-1H-1,2,3-triazol-1-yl)propan-2-ol]: 128 nM; `Cc1cc(Nc2nccc(C(F)(F)F)n2)cc(-c2cn(CC(C)(O)C(C)(C)O)nn2)c1` (stereo not shown) [Example 21.19, 2,3-dimethyl-1-[4-(3-methyl-5-{[4-(trifluoromethyl)pyrimidin-2-yl]amino}phenyl)-1H-1,2,3-triazol-1-yl]butane-2,3-diol]: 29.3 nM; `Cc1cc(Nc2nccc(C(F)F)n2)cc(-c2cn(C3CCCCC3O)nn2)c1` (stereo not shown) [Example 4.35, 2-[4-(3-{[4-(difluoromethyl)pyrimidin-2-yl]amino}-5-methylphenyl)-1H-1,2,3-triazol-1-yl]cyclohexanol]: 11 nM. For `Cc1cc(Nc2nccc(C(F)(F)F)n2)cc(-c2cn(C3COCC3O)nn2)c1` (single isomer, unassigned) [Example 4.4, 4-[4-(3-methyl-5-{[4-(trifluoromethyl)pyrimidin-2-yl]amino}phenyl)-1H-1,2,3-triazol-1-yl]tetrahydrofuran-3-ol], the IC50 turned out to be 26.1 nM. Next, `Cc1cc(Nc2cc(C(F)(F)F)ccn2)nc(-c2cn(C3CCC(C(N)=O)C(C)(C)C3)nn2)c1` (single isomer, unassigned) [Example 1.6, 2,2-dimethyl-4-[4-(4-methyl-6-{[4-(trifluoromethyl)pyridin-2-yl]amino}pyridin-2-yl)-1H-1,2,3-triazol-1-yl]cyclohexanecarboxamide]: 26.6 nM.

Regarding `Cc1cc(Nc2cc(C(F)F)ccn2)nc(-c2cn(CC3(C)CNC(=O)O3)nn2)c1` (single isomer, unassigned) [Example 7.8, 5-((4-(6-((4-(difluoromethyl)pyridin-2-yl)amino)-4-methylpyridin-2-yl) 1H-1,2,3-triazol-1-yl)methyl)-5-methyloxazolidin-2-one], the 50% inhibitory concentration (IC50) turned out to be 1.9 nM.

Turning to `Cc1cc(Nc2cc(C(F)(F)F)ccn2)nc(-c2cn([C@H](C)C(=O)N3CCC[C@H]3C(=O)O)nn2)c1` [Example 3.12, 1-{(2R)-2-[4-(4-methyl-6-{[4-(trifluoromethyl)pyridin-2-yl]amino}pyridin-2-yl)-1H-1,2,3-triazol-1-yl]propanoyl}proline], the half-inhibitory concentration (IC50) is 105 nM. Take `Cc1cc(Nc2cc(OC3CCCCC3)ccn2)nc(-c2cn(C(C)c3ccc(C(=O)O)cc3)nn2)c1` (stereo not shown) [Example 2.6, 4-{1-[4-(6-{[4-(cyclohexyloxy)pyridin-2-yl]amino}-4-methylpyridin-2-yl)-1H-1,2,3-triazol-1-yl]ethyl}benzoic acid]: the 50% inhibitory concentration (IC50) came out at 26.6 nM. As for `Cc1cc(Nc2cc(C(F)F)ccn2)nc(-c2cn(C(C)C(C)(O)CO)nn2)c1` (single isomer, unassigned) [Example 30.7, 3-[4-(6-{[4-(difluoromethyl)pyridin-2-yl]amino}-4-methylpyridin-2-yl)-1H-1,2,3-triazol-1-yl]-2-methylbutane-1,2-diol], the half-inhibitory concentration (IC50) amounted to 1.4 nM. The same measure for `Cc1cc(Nc2nccc(C)n2)cc(-c2cn(C3CCCCC3(C)O)nn2)c1` (single isomer, unassigned) [Example 7.28, 1-methyl-2-(4-{3-methyl-5-[(4-methylpyrimidin-2-yl)amino]phenyl}-1H-1,2,3-triazol-1-yl)cyclohexanol]: 77.6 nM; for `Cc1cc(Nc2cc(C(F)F)ccn2)nc(-c2cn(CC3CNCCO3)nn2)c1` (single isomer, unassigned) [Example 26.1, N-(4-(difluoromethyl)pyridin-2-yl)-4-methyl-6-(1-(morpholin-2-ylmethyl)-1H-1,2,3-triazol-4-yl)pyridin-2-amine]: 5.7 nM; for `Cc1cc(Nc2nccc(C(F)(F)F)n2)cc(-n2cc(C3(O)CCC(C(=O)O)C(C)(C)C3)nn2)c1` (stereo not shown) [Example 15.2]: 14.5 nM. Turning to `Cc1cc(Nc2nccc(C(F)(F)F)n2)cc(-c2cn(C3COCC3O)nn2)c1` (single isomer, unassigned) [Example 4.5, 4-[4-(3-methyl-5-{[4-(trifluoromethyl)pyrimidin-2-yl]amino}phenyl)-1H-1,2,3-triazol-1-yl]tetrahydrofuran-3-ol], the concentration for half-maximal inhibition (IC50) was 61.2 nM. The same measure for `COc1ccc2[nH]c3c(c2c1)CCN(C(=O)C(C)n1cc(-c2cc(C)cc(Nc4cc(C(F)(F)F)ccn4)n2)nn1)C3` (stereo not drawn) [Example 1.48, 6-{1-[2-(6-methoxy-1,3,4,9-tetrahydro-2H-beta-carbolin-2-yl)-1-methyl-2-oxoethyl]-1H-1,2,3-triazol-4-yl}-4-methyl-N-1.[4-(trifluoromethyl)pyridin-2-yl]pyridin-2-amine]: 257 nM; for `Cc1cc(Nc2cc(C(F)(F)F)ccn2)nc(-c2cn(CCOC(N)=O)nn2)c1` [Example 5.110, 2-[4-(4-methyl-6-{[4-(trifluoromethyl)pyridin-2-yl]amino}pyridin-2-yl)-1H-1,2,3-triazol-1-yl]ethyl carbamate]: 6.2 nM. For `Cc1cc(Nc2nccc(C)n2)cc(-c2cn(C3CCCCC3(C)O)nn2)c1` (single isomer, unassigned) [Example 7.27, 1-methyl-2-(4-{3-methyl-5-[(4-methylpyrimidin-2-yl)amino]phenyl}-1H-1,2,3-triazol-1-yl)cyclohexanol], the IC50 amounted to 90.4 nM. As to `Cc1ccnc(Nc2cc(C)cc(-c3cn(C[C@H](C)CO)nn3)n2)c1` [Example 5.16, (2S)-2-methyl-3-(4-{4-methyl-6-[(4-methylpyridin-2-yl)amino]pyridin-2-yl}-1H-1,2,3-triazol-1-yl)propan-1-ol], the concentration for half-maximal inhibition (IC50) worked out at 235 nM.

With `Cc1cc(Nc2nccc(OCCO)n2)cc(-c2cn(C[C@H](O)CO)nn2)c1` [Example 5.8, (2S)-3-[4-(3-{[4-(2-hydroxyethoxy)pyrimidin-2-yl]amino}-5-methylphenyl)-1H-1,2,3-triazol-1-yl]propane-1,2-diol], the concentration for half-maximal inhibition (IC50) was found to be 62 nM.

As to `Cc1cc(Nc2ncc(Cl)c(C)n2)cc(-c2cn(CC(C)(O)C(C)(C)O)nn2)c1` (stereo not shown) [Example 21.11, 1-(4-{3-[(5-chloro-4-methylpyrimidin-2-yl)amino]-5-methylphenyl}-1H-1,2,3-triazol-1-yl)-2,3-dimethylbutane-2,3-diol], the half-inhibitory concentration (IC50) is 182 nM.
